According to patent US12565475B2, “Small molecule compound inhibiting signal transmission path of TLR7 and TLR9 and use thereof” (AJOU UNIVERSITY INDUSTRY-ACADEMIC COOPERATION FOUNDATION, priority 2019, dated 2026):
Entries after “also recorded” stand apart in the source; their conditions may differ.

Assays:
TLR9 = target: T1, TLR9 (Mus musculus, UniProt Q9EQU3); assay: TLR9-mediated TNF-α secretion (ODN2395 stimulation), ELISA; assay type: cell-based, murine
T1 construct: endogenous in cells; host or cells: RAW 264.7
T1 sequence (Q9EQU3 26-1032): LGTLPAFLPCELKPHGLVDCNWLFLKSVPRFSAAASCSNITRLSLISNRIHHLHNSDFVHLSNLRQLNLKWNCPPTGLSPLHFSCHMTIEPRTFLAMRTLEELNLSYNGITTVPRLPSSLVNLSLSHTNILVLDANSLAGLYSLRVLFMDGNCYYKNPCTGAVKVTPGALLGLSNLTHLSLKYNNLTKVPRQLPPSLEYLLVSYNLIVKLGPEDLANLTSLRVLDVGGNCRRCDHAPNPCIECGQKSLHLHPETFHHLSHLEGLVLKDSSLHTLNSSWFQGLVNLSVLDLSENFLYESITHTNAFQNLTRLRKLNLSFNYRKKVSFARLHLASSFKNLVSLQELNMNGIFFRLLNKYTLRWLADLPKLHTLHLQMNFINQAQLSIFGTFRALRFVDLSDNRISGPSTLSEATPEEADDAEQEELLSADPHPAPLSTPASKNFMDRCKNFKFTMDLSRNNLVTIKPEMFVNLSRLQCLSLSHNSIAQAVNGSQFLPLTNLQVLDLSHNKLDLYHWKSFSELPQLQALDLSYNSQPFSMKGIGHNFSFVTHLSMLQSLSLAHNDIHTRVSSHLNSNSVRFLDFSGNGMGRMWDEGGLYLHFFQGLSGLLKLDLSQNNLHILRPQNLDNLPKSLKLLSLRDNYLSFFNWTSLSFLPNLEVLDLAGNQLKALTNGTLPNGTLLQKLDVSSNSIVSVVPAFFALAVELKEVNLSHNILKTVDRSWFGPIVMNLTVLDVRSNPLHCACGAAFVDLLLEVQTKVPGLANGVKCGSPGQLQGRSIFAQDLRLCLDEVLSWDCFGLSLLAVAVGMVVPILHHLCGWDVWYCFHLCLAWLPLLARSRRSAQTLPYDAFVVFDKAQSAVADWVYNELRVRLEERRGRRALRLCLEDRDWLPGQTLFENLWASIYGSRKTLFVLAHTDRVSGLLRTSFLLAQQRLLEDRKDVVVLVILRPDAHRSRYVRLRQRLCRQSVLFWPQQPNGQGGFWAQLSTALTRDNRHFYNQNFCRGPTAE
Method: (§1) Agonists specific to TLR1/TLR2 (Pam3CSK4), TLR2/TLR6 (FSL-1), TLR3 (Poly I:C), TLR7 (imiquimod), and TLR8 (TL8-506) were purchased from InvivoGen Ltd. (Hong-Kong, China), and a TLR4-specific agonist (LPS from E. coli O111:B4) was purchased from Sigma-Aldrich, Inc. For TLR9-specific stimulation, class C CpG-ODN (ODN2395, 5′-TCGTCGTTTTCGGCGCGCGCCG-3′) having full phosphorothioate backbone modification was synthesized (Bioneer, Inc., Daejeon, Korea). All TLR agonists were dissolved in deionized water and applied to a culture media for TLR activation. The cells were treated with test compounds or a control medium for 1 hour, and then stimulated with a TLR agonist for 4 hours, or 24 hours in the case of poly(I:C), and the cytokine secretion was monitored.
(§2) RAW 264.7 or differentiated THP-1 cell lines were seeded onto a 96-well culture plate at a density of 2×10^4 cells/well. The cells were treated with test compounds for 1 hour followed by the stimulation with TLR agonists for 4 hours. The supernatant was transferred to pre-coated assay plates, and the secretion levels of mouse and human TNF-α were measured by respective ELISA kits (Invitrogen, Carlsbad, CA, USA). All experiments were performed according to the manufacturer's instructions. Absorbance was measured by a microplate reader spectrophotometer (Molecular Devices, Inc., San Jose, CA, USA), and data was interpolated from a standard curve using SoftMax Pro 5.3 software (Molecular Devices, Inc.).
In order to evaluate the antagonistic effect of each compound on TLR7/TLR9 through ELISA (enzyme-linked immunosorbent assay), RAW 264.7 cells were pretreated with the eight compounds followed by the stimulation with a TLR7-specific agonist (imiquimod, 3.61 μM) or with a TLR9-specific agonist (ODN2395, 0.5 μM). […] Since the two ligands had no agonistic effect per se (FIG. 3B), the increased cytokine production may be due to cell activation (or non-specific cellular stress) by co-treatment. Consequently, TIC10 was selected as the most suitable lead for further optimization to improve the inhibitory potency against both TLR7 and TLR9.

TLR1/2 = target: T2, TLR1/2 (Mus musculus, UniProt Q9EPQ1+Q9QUN7); assay: TLR1/2-mediated TNF-α secretion (Pam3CSK4), ELISA; assay type: cell-based, murine; settings: RAW 264.7, 10 or 20 μM
T2 construct: endogenous in cells; host or cells: RAW 264.7
Method: as §1
as §2, with “All experiments were performed according to the manufacturer's instructions.” left out, “Inc.). […]” for “Inc.).”

T2 sequence (Q9EPQ1 26-795): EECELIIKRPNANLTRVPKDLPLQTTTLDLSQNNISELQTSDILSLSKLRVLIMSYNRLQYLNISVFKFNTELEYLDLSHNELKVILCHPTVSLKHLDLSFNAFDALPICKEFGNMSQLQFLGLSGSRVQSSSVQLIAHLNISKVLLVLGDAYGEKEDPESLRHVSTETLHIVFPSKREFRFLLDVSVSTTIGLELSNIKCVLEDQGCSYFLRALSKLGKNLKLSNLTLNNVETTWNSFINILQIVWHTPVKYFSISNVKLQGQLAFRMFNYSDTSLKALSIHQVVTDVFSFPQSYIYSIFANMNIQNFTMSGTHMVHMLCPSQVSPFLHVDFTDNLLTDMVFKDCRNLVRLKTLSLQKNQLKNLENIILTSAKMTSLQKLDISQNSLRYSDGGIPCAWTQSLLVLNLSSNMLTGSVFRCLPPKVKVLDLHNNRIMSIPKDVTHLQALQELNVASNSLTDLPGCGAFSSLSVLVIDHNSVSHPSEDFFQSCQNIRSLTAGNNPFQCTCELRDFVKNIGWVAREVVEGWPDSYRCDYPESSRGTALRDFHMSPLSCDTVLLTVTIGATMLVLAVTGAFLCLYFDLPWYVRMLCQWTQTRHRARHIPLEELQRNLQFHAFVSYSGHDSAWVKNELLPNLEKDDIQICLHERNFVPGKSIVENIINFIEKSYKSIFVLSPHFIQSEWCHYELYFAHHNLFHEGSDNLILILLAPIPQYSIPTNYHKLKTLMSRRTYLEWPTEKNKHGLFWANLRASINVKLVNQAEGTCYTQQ
T2 sequence (Q9QUN7 25-784): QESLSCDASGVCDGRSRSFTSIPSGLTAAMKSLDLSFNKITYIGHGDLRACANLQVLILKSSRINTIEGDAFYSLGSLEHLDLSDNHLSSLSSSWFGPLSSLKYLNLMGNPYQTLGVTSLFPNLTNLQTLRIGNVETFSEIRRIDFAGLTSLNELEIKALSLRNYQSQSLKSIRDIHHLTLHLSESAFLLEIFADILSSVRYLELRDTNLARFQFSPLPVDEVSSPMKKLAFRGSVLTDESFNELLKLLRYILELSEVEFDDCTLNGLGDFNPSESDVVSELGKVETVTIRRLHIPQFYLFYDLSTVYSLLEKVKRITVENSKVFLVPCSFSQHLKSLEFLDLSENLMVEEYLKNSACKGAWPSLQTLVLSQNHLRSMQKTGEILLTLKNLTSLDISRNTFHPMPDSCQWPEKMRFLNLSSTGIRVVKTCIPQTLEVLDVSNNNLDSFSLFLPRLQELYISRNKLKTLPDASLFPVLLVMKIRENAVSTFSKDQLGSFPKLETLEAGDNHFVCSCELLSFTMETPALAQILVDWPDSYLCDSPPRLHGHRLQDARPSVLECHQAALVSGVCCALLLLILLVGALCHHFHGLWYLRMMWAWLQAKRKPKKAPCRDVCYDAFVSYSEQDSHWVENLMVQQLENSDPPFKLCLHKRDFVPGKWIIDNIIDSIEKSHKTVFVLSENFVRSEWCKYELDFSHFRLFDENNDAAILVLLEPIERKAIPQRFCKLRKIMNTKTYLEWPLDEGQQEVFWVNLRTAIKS

## COc1ccc(CNc2ncc(-c3ccc4c(c3)OCO4)n2C)c(OC)c1 [TIC10-7, 5-(2H-1,3-benzodioxol-5-yl)-N-[(2,4-dimethoxyphenyl)methyl]-1-methyl-1H-imidazol-2-amine]
TLR9; RAW 264.7, 10 or 20 μM, ODN2395 (receptor specificity, FIG. 6)
  TLR9-mediated TNF-α secretion: moderately reduced
TLR9; RAW 264.7, 10 or 50 μM, ODN2395 (FIG. 4A)
  inhibitory efficacy on TLR9-mediated TNF-α secretion: improved inhibitory efficacy compared to TIC10; also recorded: significant reduction
TLR9; RAW 264.7, ODN2395 (FIG. 4C)
  IC50: 6.71 µM
TLR1/2
  effect on TLR1/2-mediated cytokine (TNF-α) production: no effect
